pIC50: −log10 of the molar value. Several values for one entry are separate records, joined by “and”; a condition that tells them apart may be missing. Equal entries are not always repeated. Where two headings read alike, the source gives them in different places.
Molecular target: hTRPV3 (Homo sapiens (Human), UniProt Q8NET8)
Assay: Whole-cell patch clamp, hTRPV3 Phase 1 / Phase 2 currents
Format: cell-based
Conditions: for pIC50: inward, whole-cell patch clamp
Procedure, shortened: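 Whole-cell recordings on induced TRPV3 cells replated on coverslips, held at −40 mV with 400 ms ramps from −120 to +100 mV every 5 s; currents read at −80 and +80 mV. Ringer's external solution; current activated by heating to ≥28 °C or 20 μM 2-APB.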

[1] = Phase 1 current, read-out: hTRPV3 Patch P1 Inwd
[2] = Phase 1 current, read-out: hTRPV3 (nM) (Phase 1)
[3] = Phase 2 current, read-out: hTRPV3 Patch P2 Inwd
[4] = Phase 2 current, read-out: hTRPV3 (nM) (Phase 2)
[5] = Phase 1 current, human TRPV3, read-out: hTRPV3 (nM) Phase 1

Chain of hTRPV3 (Q8NET8 whole entry): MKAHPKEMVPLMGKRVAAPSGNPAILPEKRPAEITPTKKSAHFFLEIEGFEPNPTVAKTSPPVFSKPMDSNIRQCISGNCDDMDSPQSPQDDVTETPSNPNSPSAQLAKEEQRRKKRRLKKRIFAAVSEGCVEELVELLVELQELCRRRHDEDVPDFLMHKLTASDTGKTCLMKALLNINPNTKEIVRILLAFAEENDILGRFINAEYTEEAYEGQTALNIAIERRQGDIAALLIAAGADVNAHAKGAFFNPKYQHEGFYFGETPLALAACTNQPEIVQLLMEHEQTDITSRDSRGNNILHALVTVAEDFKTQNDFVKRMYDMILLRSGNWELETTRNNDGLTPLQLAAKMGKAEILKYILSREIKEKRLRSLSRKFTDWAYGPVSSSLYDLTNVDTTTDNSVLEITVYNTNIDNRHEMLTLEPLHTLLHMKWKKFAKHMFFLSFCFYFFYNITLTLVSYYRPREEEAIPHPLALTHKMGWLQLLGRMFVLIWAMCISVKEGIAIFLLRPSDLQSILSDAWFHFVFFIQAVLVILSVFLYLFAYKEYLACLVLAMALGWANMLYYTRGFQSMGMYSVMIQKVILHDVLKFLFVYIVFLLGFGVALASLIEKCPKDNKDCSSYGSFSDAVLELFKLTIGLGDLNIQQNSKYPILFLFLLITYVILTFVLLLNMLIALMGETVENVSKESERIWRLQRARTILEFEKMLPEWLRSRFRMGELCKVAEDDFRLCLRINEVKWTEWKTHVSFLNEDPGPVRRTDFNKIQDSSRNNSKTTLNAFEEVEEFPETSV

With `OCC(O)c1cc(-c2ccccc2)ccc1N1CC[C@H](Oc2ccc(C(F)(F)F)cn2)C1` (stereo partly drawn) [Compound 1-148, 1-(4-((S)-3-(5-(trifluoromethyl)pyridin-2-yloxy)pyrrolidin-1-yl)biphenyl-3-yl)ethane-1,2-diol] the pIC50 [1] was 6.00 to 7.00, the IC50 [2] was 550 nM and the pIC50 [3] was 6.00 to 7.00. It also gave an IC50 [4] of 699 nM.
`OCCc1ccc(C(O)c2ccccc2Cl)cc1N1CC[C@H](Oc2ncccc2Cl)C1` (stereo partly drawn) [Compound 1-354, 2-(4-((2-chlorophenyl)(hydroxy)methyl)-2-((S)-3-(3-chloropyridin-2-yloxy)pyrrolidin-1-yl)phenyl)ethanol] gave a pIC50 [1] of under 6.00 and an IC50 [2] of 1010 nM.
Work on `COc1ccccc1-c1ccc(N2CC[C@H](Oc3ccc(C)cn3)C2)c(CO)n1` [Compound 1-191, (S)-(6-(2-methoxyphenyl)-3-(3-(5-methylpyridin-2-yloxy)pyrrolidin-1-yl)pyridin-2-yl)methanol] yielded a pIC50 [1] of under 6.00 and an IC50 [2] of over 3200 nM.
Work on `CCc1ccccc1C(O)c1ccc(N2CC[C@H](Oc3ncccc3Cl)C2)c(CO)c1` (stereo partly drawn) [Compound 1-260, (4-((S)-3-(3-chloropyridin-2-yloxy)pyrrolidin-1-yl)-3-(hydroxymethyl)phenyl)(2-ethylphenyl)methanol] yielded a pIC50 [1] of under 6.00 and an IC50 [2] of 3150 nM.
For `O=C(O)c1ccccc1N1CC[C@@H](Oc2ccc(C(F)(F)F)cn2)C1` [Compound 1-41, (R)-2-(3-(5-(trifluoromethyl)pyridin-2-yloxy)pyrrolidin-1-yl)benzoic acid], the pIC50 [1] was under 6.00 and the pIC50 [3] was under 6.00.
`Cc1cccnc1CO[C@H]1CCN(c2ccc(-c3ccccc3)cc2CO)C1` [Compound 1-399] showed an IC50 [2] of over 3200 nM and an IC50 [4] of 481 nM.
Compound `CCc1ccccc1-c1ccc(N2CC[C@H](Oc3ccc(C)cn3)C2)c(CCO)n1` [Compound 1-218, (S)-2-(6-(2-ethylphenyl)-3-(3-(5-methylpyridin-2-yloxy)pyrrolidin-1-yl)pyridin-2-yl)ethanol] has a pIC50 [1] of 6.00 to 7.00 and an IC50 [2] of 614 nM.
For `NC(=O)c1cc(-c2ccccc2Cl)ccc1N1CCC(Oc2ccc3ccccc3n2)C1=O` (stereo not drawn) [Compound 1-114, 2′-chloro-4-(2-oxo-3-(quinolin-2-yloxy)pyrrolidin-1-yl)biphenyl-3-carboxamide], the pIC50 [1] was under 6.00, the IC50 [2] was about 3900 nM and the pIC50 [3] was under 6.00. For the same compound, the IC50 [4] was about 3150 nM.
For `O=C(c1cc(Cl)ccn1)N1CCC(c2ccc(-c3ccccc3C3CC3)cc2CO)C1` (stereo not drawn) [Compound 2-60, (4-chloropyridin-2-yl)(3-(2′-cyclopropyl-3-(hydroxymethyl)biphenyl-4-yl)pyrrolidin-1-yl)methanone], the IC50 [5] was 26.5 nM and the pIC50 [1] was 7.00 to 8.00.
`CC(O)c1cc(F)ccc1-c1ccc(C2CCN(C(=O)c3ccc(Cl)cn3)C2)c(CO)c1` (stereo not drawn) [Compound 2-71, (5-chloropyridin-2-yl)(3-(4′-fluoro-2′-(1-hydroxyethyl)-3-(hydroxymethyl)biphenyl-4-yl)pyrrolidin-1-yl)methanone] showed an IC50 [5] of 860 nM, a pIC50 [1] of 6.00 to 7.00 and an IC50 (Phase 2 current, human TRPV3, read-out: hTRPV3 (nM) Phase 2) of 572 nM. It also gave a pIC50 [3] of 6.00 to 7.00.
With `CCc1ccccc1Oc1ccc(N2CC[C@H](Oc3ccc(C#N)cn3)C2)c(CO)c1` [Compound 1-352] the pIC50 [1] was 6.00 to 7.00 and the IC50 [2] was 974 nM.
In the case of `O=C(c1cnc(Cl)cn1)N1CCC(c2ccc(-c3ccccc3C3CC3)cc2CO)C1` (stereo not drawn) [Compound 2-108], the IC50 [5] was 12.9 nM and the pIC50 [1] was 7.00 to 8.00.
With `COC(C)c1ccccc1Oc1ccc(N2CC[C@H](Oc3ccc(C)cn3)C2)c(CCO)c1` (stereo partly drawn) [Compound 1-355, 2-(5-(2-(1-methoxyethyl)phenoxy)-2-((S)-3-(5-methylpyridin-2-yloxy)pyrrolidin-1-yl)phenyl)ethanol] the pIC50 [1] was 6.00 to 7.00 and the IC50 [2] was 173 nM.
With `COCc1ccccc1-c1ccc(C2CCN(C(=O)c3ccc(Cl)cn3)C2)c(CO)c1` (stereo not drawn) [Compound 2-65, (5-chloropyridin-2-yl)(3-(3-(hydroxymethyl)-2′-(methoxymethyl)biphenyl-4-yl)pyrrolidin-1-yl)methanone] the IC50 [5] was 97.7 nM and the pIC50 [1] was 7.00 to 8.00.
In the case of `CCc1ccccc1Oc1ccc(C2CC(=O)N(Cc3ccc(Cl)cn3)C2)c(C(N)=O)c1` (stereo not drawn) [Compound 2-101, 2-(1-((5-chloropyridin-2-yl)methyl)-5-oxopyrrolidin-3-yl)-5-(2-ethylphenoxy)benzamide], the IC50 [5] was over 3200 nM and the pIC50 [1] was under 6.00.
In the case of `O=C1C(Oc2ccc3ccccc3n2)CCN1c1cccc2ccccc12` (stereo not drawn) [Compound 1-101], the pIC50 [1] was under 6.00, the IC50 [2] was over 1000 nM and the pIC50 [3] was under 6.00. For the same compound, the IC50 [4] was over 1000 nM.
In the case of `NC(=O)c1ccc(-c2ccccc2)cc1N1CC[C@H](Oc2ccc(C(F)(F)F)cn2)C1` [Compound 1-63, (S)-3-(3-(5-(trifluoromethyl)pyridin-2-yloxy)pyrrolidin-1-yl)biphenyl-4-carboxamide], the pIC50 [1] was under 6.00 and the pIC50 [3] was under 6.00.
`CCc1ccccc1Oc1ccc(C2CC(=O)N(Cc3ccccn3)C2)c(C(N)=O)c1` (stereo not drawn) [Compound 2-100, 5-(2-ethylphenoxy)-2-(5-oxo-1-(pyridin-2-ylmethyl)pyrrolidin-3-yl)benzamide] was tested, and the IC50 [5] was over 3200 nM and the pIC50 [1] was under 6.00.
`OCc1ccc(-c2ccc(N3CC[C@H](Oc4ccc(C(F)(F)F)cn4)C3)c(CO)c2)cc1` [Compound 1-261, (S)-(4-(3-(5-(trifluoromethyl)pyridin-2-yloxy)pyrrolidin-1-yl)biphenyl-3,4′-diyl)dimethanol] showed a pIC50 [1] of 6.00 to 7.00 and an IC50 [2] of 604 nM.
`NC(=O)c1cc(-c2ccccc2)cnc1N1CC[C@@H](Nc2ccc(C(F)(F)F)cn2)C1` [Compound 1-378, (R)-5-phenyl-2-(3-(5-(trifluoromethyl)pyridin-2-ylamino)pyrrolidin-1-yl)nicotinamide] was tested, and the pIC50 [1] was under 6.00, the IC50 [2] was over 3200 nM and the pIC50 [3] was under 6.00. It also gave an IC50 [4] of over 3200 nM.
With `CCc1c(Oc2ccc(F)c(CO)c2)ncnc1N1CC[C@H](Oc2ncccc2Cl)C1` [Compound 1-359, (S)-(5-(6-(3-(3-chloropyridin-2-yloxy)pyrrolidin-1-yl)-5-ethylpyrimidin-4-yloxy)-2-fluorophenyl)methanol] the “hTRPV3 (nM) (Phase 1)” value (Phase 1 current) was “Agonist (Phase 1)”.
For `O=C1C(Oc2ccc3ccccc3n2)CCN1c1ccccc1Cl` (stereo not drawn) [Compound 1-106, 1-(2-chlorophenyl)-3-(quinolin-2-yloxy)pyrrolidin-2-one], the pIC50 [1] was under 6.00, the IC50 [2] was over 3200 nM and the pIC50 [3] was under 6.00. For the same compound, the IC50 [4] was over 3200 nM.
In the case of `O=C(c1ccc(CCO)c(N2CC[C@H](Oc3ncccc3Cl)C2)c1)c1ccccc1Cl` [Compound 1-360, (S)-(2-chlorophenyl)(3-(3-(3-chloropyridin-2-yloxy)pyrrolidin-1-yl)-4-(2-hydroxyethyl)phenyl)methanone], the pIC50 [1] was 6.00 to 7.00 and the IC50 [2] was 770 nM.
`O=C(c1ncccc1Cl)N1CCC(c2ccc(-c3ccccc3C3CC3)cc2CO)C1` (stereo not drawn) [Compound 2-55, (3-chloropyridin-2-yl)(3-(2′-cyclopropyl-3-(hydroxymethyl)biphenyl-4-yl)pyrrolidin-1-yl)methanone] gave an IC50 [5] of 88.4 nM and a pIC50 [1] of 7.00 to 8.00.
For `Cc1ccc(O[C@H]2CCN(c3ccc(-c4ccccc4CN(C)C(=O)OC(C)(C)C)nc3CO)C2)nc1` [Compound 1-258, (S)-tert-butyl 2-(6-(hydroxymethyl)-5-(3-(5-methylpyridin-2-yloxy)pyrrolidin-1-yl)pyridin-2-yl)benzyl (methyl)carbamate], the pIC50 [1] was 6.00 to 7.00 and the IC50 [2] was 276 nM.
Work on `COCc1ccccc1Oc1ccc(N2CC[C@H](Oc3ncccc3F)C2)c(CCO)c1` [Compound 1-351, (S)-2-(2-(3-(3-fluoropyridin-2-yloxy)pyrrolidin-1-yl)-5-(2-(methoxymethyl)phenoxy)phenyl)ethanol] yielded a pIC50 [1] of 6.00 to 7.00 and an IC50 [2] of 461 nM.
Compound “(3-(4-(4-chloro-3-ethylpyridin-2-yloxy)-2-(hydroxymethyl)phenyl)pyrrolidin-1-yl)(5-fluoropyridin-2-yl)methanone [Compound 2-43]” has an IC50 [5] of over 3200 nM and a pIC50 [1] of under 6.00.
With `Cc1ccc(C(=O)c2ccc(C3CCN(C(=O)c4ncccc4Cl)C3)c(CO)c2)cc1` (stereo not drawn) [Compound 2-7] the IC50 [5] was over 3200 nM and the pIC50 [1] was under 6.00.
Compound `Cc1cccnc1O[C@H]1CCN(c2ccc(-c3ccccc3)cc2C(C)O)C1` (stereo partly drawn) [Compound 1-169, 1-(4-((S)-3-(3-methylpyridin-2-yloxy)pyrrolidin-1-yl)biphenyl-3-yl)ethanol] has a pIC50 [1] of 6.00 to 7.00, an IC50 [2] of 476 nM and a pIC50 [3] of 6.00 to 7.00. It also gave an IC50 [4] of 655 nM.
`OCCc1cc(C(O)c2cccc(Cl)c2)ccc1N1CC[C@H](Oc2ncccc2Cl)C1` (stereo partly drawn) [Compound 1-329, 2-(5-((3-chlorophenyl)(hydroxy)methyl)-2-((S)-3-(3-chloropyridin-2-yloxy)pyrrolidin-1-yl)phenyl)ethanol] showed a pIC50 [1] of under 6.00 and an IC50 [2] of 3100 nM.
`NCc1ccc(N2CC[C@@H](Oc3ccc(C(F)(F)F)cn3)C2)c(C(N)=O)c1` [Compound 1-45] showed a pIC50 [1] of under 6.00.
`COc1ccccc1N1CCC(Nc2ncc(C(F)(F)F)cc2Cl)C1` (stereo not drawn) [Compound 1-370, 3-chloro-N-(1-(2-methoxyphenyl)pyrrolidin-3-yl)-5-(trifluoromethyl)pyridin-2-amine] was tested, and the pIC50 [1] was under 6.00.
Compound `COC(=O)c1cc(-c2ccccc2C(C)C)ccc1C1CCN(C(=O)c2ccc(F)cn2)C1` (stereo not drawn) [Compound 2-23] has an IC50 [5] of 886 nM and a pIC50 [1] of 6.00 to 7.00.
In the case of `COc1ccccc1-c1ccc(N2CC[C@H](Oc3ncccc3F)C2)c(CO)n1` [Compound 1-213, (S)-(3-(3-(3-fluoropyridin-2-yloxy)pyrrolidin-1-yl)-6-(2-methoxyphenyl)pyridin-2-yl)methanol], the pIC50 [1] was under 6.00 and the IC50 [2] was 2790 nM.
`Nc1cc(-c2ccccc2)ccc1N1CC[C@@H](Oc2ccc(C(F)(F)F)cn2)C1` [Compound 1-93, (R)-4-(3-(5-(trifluoromethyl)pyridin-2-yloxy)pyrrolidin-1-yl)biphenyl-3-amine] was tested, and the “hTRPV3 (nM) (Phase 2)” value (Phase 2 current) was “Incomplete Block” and the IC50 (hTRPV3 (nM) (Phase 2), Phase 2 current) was 494 nM and < 320 nM.
